The source of these data is BindingDB's records for doi:10.1021/acs.jmedchem.7b00089 (International Centre For Genetic Engineering and …, 2017).

This assay deals with T1, Heme ligase (Plasmodium falciparum (isolate 3D7), UniProt Q8IL04).
T1 sequence (Q8IL04 whole entry): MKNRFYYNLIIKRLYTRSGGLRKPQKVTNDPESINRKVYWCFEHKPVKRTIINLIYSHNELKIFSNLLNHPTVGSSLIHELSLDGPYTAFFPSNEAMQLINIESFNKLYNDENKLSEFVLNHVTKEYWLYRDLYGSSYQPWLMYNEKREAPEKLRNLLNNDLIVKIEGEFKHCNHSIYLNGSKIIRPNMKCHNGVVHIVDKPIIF
As to the kind of experiment: ChEBML_1681013. An excerpt:
Binding affinity to Plasmodium falciparum 3D7 HDP assessed as equilibrium dissociation constant by SPR assay

Each structure is given as a SMILES string.

The Kd is a measure of binding affinity in units of concentration. Turning to `FC(F)(F)c1cccc(N2CCN(C3=Cc4ccccc4CC3)CC2)c1`, binding was put at a Kd of 2960 nM.
